# Tests used:
# [1] = target: T1, HCV genotype 1a NS3-NS4A protease (Hepatitis C virus genotype 1a, UniProt P27958); experiment: Inhibition constant (Ki) determination and mode of inhibition, steady-state velocity, genotype 1a; format: biochemical
# T1 construct: Co-purification of mature NS3 and NS4A protein complex was verified by Western blot analysis; made in house; host or cells: Sf21 insect cells, recombinant baculovirus (pFastBac HTa)
# Experimental: (§1) The fluorogenic depsipeptide substrate anthranilyl-D(d)EIVP-Nva[C(O)—O] AMY(3-N2)TW—OH (SEQ ID No.13) was used to assess the mechanism of inhibition and the inhibition constants of the compound (IV) against HCV NS3-NS4A proteases. It was cleaved between the norvaline and the alanine residues. The substrate working solution was prepared in DMSO at the concentration of 200 μM from the substrate stock solution (2 mM in DMSO stored at —20° C.). The final substrate concentration in the assay varied from 0.25 to 8 μM. The inhibition constant (Ki) for compound (IV) was determined using a steady-state velocity method (Morrisson et al. 1985). The protease activity was determined by monitoring the fluorescence change associated with the cleavage of the internally quenched fluorogenic substrate using a SLM-AMINCO® 8100 spectrofluorometer ([…]). The cleavage reaction was monitored in the presence of 0.25 to 8 μM of substrate, 0.3 nM of HCV 1a or 1b NS3-NS4A heterodimer protein and various concentrations of the test compound IV in 50 mM Tris-HCl, pH 8.0, 0.25M sodium citrate, 0.01% n-dodecyl-β-D-maltoside, 1 mM TCEP. The steady-state analysis of inhibition of the HCV genotype 1a and 1b NS3-NS4A heterodimer proteases were performed using the Dixon and Cornish-Bowden graphical methods. […]
# [2] = target: T2, HCV genotype 1b NS3-NS4A protease (UniProt P26662); experiment: Inhibition constant (Ki) determination and mode of inhibition, steady-state velocity, genotype 1b; format: biochemical
# T2 construct: fused on or other part: 28 extra N-terminal residues with a hexahistidine tag and an rTEV cleavage site
# Experimental: as §1
# [3] = target: T3, HCV genotype 2a-c NS3-NS4A protease (UniProt P26660); experiment: Inhibition constant (Ki) determination, genotype 2a-c; format: biochemical; conditions: read-out: Ki HCV genotype 2a-c
# T3 sequence (P26660 1031-1661): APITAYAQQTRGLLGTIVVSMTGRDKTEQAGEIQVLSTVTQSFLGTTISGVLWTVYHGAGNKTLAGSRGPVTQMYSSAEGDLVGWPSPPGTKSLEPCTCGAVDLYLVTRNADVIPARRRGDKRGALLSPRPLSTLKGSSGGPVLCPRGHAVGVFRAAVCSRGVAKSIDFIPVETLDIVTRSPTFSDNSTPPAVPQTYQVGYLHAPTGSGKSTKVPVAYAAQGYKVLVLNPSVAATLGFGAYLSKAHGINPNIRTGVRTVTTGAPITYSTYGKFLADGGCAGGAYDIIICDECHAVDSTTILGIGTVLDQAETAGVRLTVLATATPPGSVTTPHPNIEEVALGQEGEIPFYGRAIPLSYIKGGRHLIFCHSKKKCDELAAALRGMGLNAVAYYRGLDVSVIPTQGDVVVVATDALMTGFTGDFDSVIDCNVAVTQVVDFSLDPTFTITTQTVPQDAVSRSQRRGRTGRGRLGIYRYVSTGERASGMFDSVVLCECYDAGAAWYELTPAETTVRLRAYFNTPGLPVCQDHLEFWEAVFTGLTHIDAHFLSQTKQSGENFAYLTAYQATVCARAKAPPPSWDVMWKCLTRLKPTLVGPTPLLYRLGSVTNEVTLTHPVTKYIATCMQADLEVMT
# [4] = system: HCV replicon-containing, Huh-7-derived cell lines; conditions: human
# [5] = Dixon and Cornish-Bowden plots, GraFit
# T2 sequence (P26662 1027-1657): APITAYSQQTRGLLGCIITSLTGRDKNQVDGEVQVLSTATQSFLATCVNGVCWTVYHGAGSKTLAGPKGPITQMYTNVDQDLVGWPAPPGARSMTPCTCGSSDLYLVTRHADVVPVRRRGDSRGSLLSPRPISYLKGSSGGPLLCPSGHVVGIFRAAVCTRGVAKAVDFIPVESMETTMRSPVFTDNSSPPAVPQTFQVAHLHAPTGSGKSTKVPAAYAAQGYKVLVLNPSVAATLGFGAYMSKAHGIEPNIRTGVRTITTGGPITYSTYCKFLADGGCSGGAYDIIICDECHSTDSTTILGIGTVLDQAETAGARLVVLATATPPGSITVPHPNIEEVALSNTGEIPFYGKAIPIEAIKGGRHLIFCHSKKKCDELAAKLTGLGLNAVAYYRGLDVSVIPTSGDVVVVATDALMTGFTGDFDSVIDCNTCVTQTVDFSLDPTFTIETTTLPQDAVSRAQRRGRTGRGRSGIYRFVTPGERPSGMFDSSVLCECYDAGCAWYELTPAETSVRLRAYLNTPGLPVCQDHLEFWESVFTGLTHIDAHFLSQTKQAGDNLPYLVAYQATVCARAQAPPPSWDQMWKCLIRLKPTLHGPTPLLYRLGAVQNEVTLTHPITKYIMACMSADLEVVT
# T1 sequence (P27958 1027-1657): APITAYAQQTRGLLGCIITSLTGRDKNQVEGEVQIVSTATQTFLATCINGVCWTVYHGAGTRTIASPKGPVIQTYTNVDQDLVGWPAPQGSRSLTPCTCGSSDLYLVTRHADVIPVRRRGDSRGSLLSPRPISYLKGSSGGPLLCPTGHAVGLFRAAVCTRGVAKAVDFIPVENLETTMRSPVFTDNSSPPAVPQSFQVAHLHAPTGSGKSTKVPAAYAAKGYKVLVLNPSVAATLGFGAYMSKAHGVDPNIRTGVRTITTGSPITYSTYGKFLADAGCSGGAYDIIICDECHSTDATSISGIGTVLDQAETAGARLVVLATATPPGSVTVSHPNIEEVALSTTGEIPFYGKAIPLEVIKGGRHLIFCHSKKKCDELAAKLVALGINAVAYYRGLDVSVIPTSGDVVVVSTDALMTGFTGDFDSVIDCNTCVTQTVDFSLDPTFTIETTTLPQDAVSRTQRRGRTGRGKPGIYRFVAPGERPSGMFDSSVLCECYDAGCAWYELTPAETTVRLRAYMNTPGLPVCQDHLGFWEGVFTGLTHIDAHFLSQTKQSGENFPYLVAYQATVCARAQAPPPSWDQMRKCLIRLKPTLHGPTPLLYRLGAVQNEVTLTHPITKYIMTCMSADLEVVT
# T1 sequence (P27958 1658-1711): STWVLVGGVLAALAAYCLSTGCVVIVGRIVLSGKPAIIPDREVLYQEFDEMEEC
structure (smiles),measurement,setting,value
COc1ccc2c(O[C@@H]3C[C@H]4C(=O)N[C@]5(C(=O)O)CC5/C=C\CCCCC[C@H](NC(=O)OC5CCCC5)C(=O)N4C3)cc(-c3csc(NC(C)C)n3)nc2c1 (stereo partly drawn) [IV],Ki,[1],0.3 nM
same,"mode of inhibition, HCV genotype 1a NS3-NS4A protease",[1]; [5],competitive
same,"mode of inhibition, HCV genotype 1b NS3-NS4A protease",[2]; [5],competitive
same,Ki,"[2]; read-out: Ki HCV genotype 1b NS3-NS4A protease, steady-state velocity analysis",0.66 nM
same,Ki,[3],86 nM
same,Cytotoxicity (concentration at which not observed),[4],higher than 1000 nM

# Source: patent publication US20050159345A1 (Boehringer Ingelheim International GmbH, priority 2002, published 2005)
